Tested on: human vascular smooth muscle cells
Assay type: cell-based
Settings: for IC50: human vascular smooth muscle cells, 48 hours with substance, WST-1 absorbance at 450 nm
Description: Substances indicated in Table 1 were used to carry out a cell cytotoxicity test using human vascular smooth muscle cells.
More particularly, human vascular smooth muscle cells were implanted into individual wells of a 96-well microtitor plate along with a culture solution (commercial name: SmGM-2 Bullet kit, made by Cambrex Corporation), followed by cultivation in a carbon dioxide gas incubator at 37° C. for 48 hours. The culture solution dissolving MgCl2 that was used as a chemical substance to be tested was added thereto in every […] so that a final concentration was at 1×10^−7 to 10^−1 M, followed by cultivation for further 48 hours.
Next, WST-1 (La Roche Ltd.) was added, followed by cultivation for 4 hours. WST-1 taken in the human vascular smooth muscle cells was extracted, and the absorbance at 450 nm of the resulting extract was measured by means of a microreader (commercial name: iEMS reader MF, made by Labsystems Inc.). It will be noted that WST-1 taken in the human vascular smooth muscle cells emits light when oxidized and reduced by means of an electron transmission system of mitochondria. Accordingly, WST-1 emits light by reaction only with living cells.
A graph was made wherein an abscissa indicates a concentration of a chemical substance to be subjected to the cytotoxicity test and an ordinate indicates a ratio of a quantity of emitted light of cells subjected to treatment with a chemical substance to be tested to a quantity of emitted light of non-treated cells for reference. The degree of cell cytotoxicity was quantified as a concentration of a chemical substance (IC50 value) at which a ratio of a quantity of a dye taken in the treated cells to a quantity of a dye taken in non-treated cells was at 50%.
Such a test was carried out with respect to other types of chemical substances (NdCl2, GdCl2, Ycl3, CrCl2, and NiCl2) to be subjected to the cytotoxicity test to likewise obtain IC50 values.

SMILES	cell cytotoxicity (in words)	IC50 [mM]
[Cl][Gd][Cl] [GdCl2]	very low	81
[Cl-].[Cl-].[Nd+2] [NdCl2]	very low	74
[Cl][Ni][Cl] [NiCl2]		0.75
[Cl-].[Cl-].[Cl-].[Y+3] [Ycl3]		0.36
[Cl-].[Cl-].[Mg+2] [MgCl2]	very low	34
[Cl][Cr][Cl] [CrCl2]		0.11
